Test results: patent publication US7605154B2, “Substituted Thiazolo [4,5-d]pyrimidines as protein kinase inhibitors” (Janssen Pharmaceutica N.V., priority 2005, dated 2009)

molecular target: T1, EGFR (Homo sapiens, UniProt P00533); test: EGFR Kinase Assay; type: biochemical; conditions: GST-EGFR, 5 μM ATP
T1 construct: started at nucleotide 2189 (corresponding to amino acid 667) and ended at the termination codon; made in house; host or cells: Sf9 insect cells (baculovirus)
From the text: The portion was PCR amplified with primers that added the lambda attB sequences to each end, recombined into an entry vector, then into a, GST destination vector (as described in Gateway Technologies Manual by Invitrogen Corporation, Carlsbad, Calif.).
The destination vector was recombined in the DH10BAC strain of bacteria to produce a bacmid. The bacmid was transfected into Sf 9 cells and the supernatant containing the baculovirus was collected. The GSTEGFR protein was purified using large cultures of Sf 9 cells infected with stock virus. After an appropriate period of time, the cells were collected and lysed. The GSTEGFR was then purified from the lysate on Glutathione-Sepharose columns (as described by Amersham Biosciences, Buckinghamshire, United Kingdom).
The free biotin was separated from the biotinylated polyGluTyr on a gel filtration column.
A mixture of a 10× kinase buffer (500 mM Tris at pH 8.0, 100 mM Magnesium Chloride and 1 mM Sodium Vanadate), DTT (1 mM final from 500 mM stock), ATP (5 μM final from 10 mM stock), biotinylated polyGluTyr (10 μg/μL stock), γ-^33P ATP (10 μCi/μL stock) and water was added to each well (90 μL/well) of a Streptavidin Flashplate (Perkin Elmer, Wellesley, Mass.).
Test compound in 100% DMSO (2 μL) was added to the appropriate wells. Diluted GSTEGFR (1:300 dilution in 50 mM Tris at pH 8.0 and 0.1% bovine serum albumin) (10 μL) was added to the wells to initiate the reactions.
The plates were incubated at 30° C. for 1 hr with shaking. The reacted contents were removed and the plates were sequentially washed three times with a 1×PBS stop buffer (300 μL without Magnesium and Calcium) and 100 mM EDTA. After the final wash, the same stop buffer (200 μL) was added to the wells. The plates were then sealed and read on the TopCount scintillation counter.
Test compounds were assayed in triplicate at 16 concentrations at half-log dilutions starting at 200 uM. A maximum and minimum signal for the assay was determined on each plate. The percent inhibition of a test compound was calculated according to the formula
For a series of test concentrations, the IC50 was derived by graphing percent inhibition against the log of the concentrations tested for a given compound.

T1 sequence (P00533 667-1210 limits assumed): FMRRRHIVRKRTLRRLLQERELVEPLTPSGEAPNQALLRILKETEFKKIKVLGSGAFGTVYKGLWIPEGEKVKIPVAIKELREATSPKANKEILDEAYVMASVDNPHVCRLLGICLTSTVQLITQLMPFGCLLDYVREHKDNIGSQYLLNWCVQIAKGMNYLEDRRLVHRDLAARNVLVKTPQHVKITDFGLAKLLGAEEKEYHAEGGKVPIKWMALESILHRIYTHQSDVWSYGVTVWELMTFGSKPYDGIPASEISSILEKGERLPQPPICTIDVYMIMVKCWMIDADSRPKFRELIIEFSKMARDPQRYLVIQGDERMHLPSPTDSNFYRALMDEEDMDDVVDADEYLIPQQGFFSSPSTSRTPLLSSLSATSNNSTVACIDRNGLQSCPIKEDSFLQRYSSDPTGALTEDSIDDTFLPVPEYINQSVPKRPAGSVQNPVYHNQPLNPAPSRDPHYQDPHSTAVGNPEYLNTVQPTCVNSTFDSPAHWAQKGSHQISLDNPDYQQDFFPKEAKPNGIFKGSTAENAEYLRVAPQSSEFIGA

Compound | IC50
C#Cc1cccc(Nc2ncnc3nc(Nc4ccc(CN(CCOC)CCOC)cc4)sc23)c1 [Cpd 38, N^2-(4-{[bis-(2-methoxy-ethyl)-amino]-methyl}-phenyl)-N^7-(3-ethynyl-phenyl)-thiazolo[4,5-d]pyrimidine-2,7-diamine] | 28.5 nM
O=S(=O)(NCCO)c1ccc(Nc2nc3ncnc(Nc4ccc(F)c(Cl)c4)c3s2)cc1 [Cpd 39, 4-[7-(3-chloro-4-fluoro-phenylamino)-thiazolo[4,5-d]pyrimidin-2-ylamino]-N-(2-hydroxy-ethyl)-benzenesulfonamide] | 2.5 nM
O=S(=O)(NCCN1CCOCC1)c1ccc(Nc2nc3ncnc(Nc4ccc(F)c(Cl)c4)c3s2)cc1 [Cpd 40, 4-[7-(3-chloro-4-fluoro-phenylamino)-thiazolo[4,5-d]pyrimidin-2-ylamino]-N-(2-morpholin-4-yl-ethyl)-benzenesulfonamide] | 9 nM
O=S(=O)(NCCCN1CCOCC1)c1ccc(Nc2nc3ncnc(Nc4ccc(F)c(Cl)c4)c3s2)cc1 [Cpd 41, 4-[7-(3-chloro-4-fluoro-phenylamino)-thiazolo[4,5-d]pyrimidin-2-ylamino]-N-(3-morpholin-4-yl-propyl)-benzenesulfonamide] | 10 nM
C#Cc1cccc(Nc2ncnc3nc(Nc4ccc(CN5CCCC5)cc4)sc23)c1 [Cpd 42, N^7-(3-ethynyl-phenyl)-N^2-(4-pyrrolidin-1-ylmethyl-phenyl)-thiazolo[4,5-d]pyrimidine-2,7-diamine] | 5.42 nM
C#Cc1cccc(Nc2ncnc3nc(Nc4ccc(CN5CCCCC5)cc4)sc23)c1 [Cpd 43, N^7-(3-ethynyl-phenyl)-N^2-(4-piperidin-1-ylmethyl-phenyl)-thiazolo[4,5-d]pyrimidine-2,7-diamine] | 7.8 nM
C#Cc1cccc(Nc2ncnc3nc(Nc4ccc(CN5CCC[C@H]5CO)cc4)sc23)c1 [Cpd 44, (2S)-(1-{4-[7-(3-ethynyl-phenylamino)-thiazolo[4,5-d]pyrimidin-2-ylamino]-benzyl}-pyrrolidin-2-yl)-methanol] | 10 nM
C#Cc1cccc(Nc2ncnc3nc(Nc4ccc(S(=O)(=O)N5CCOCC5)cc4)sc23)c1 [Cpd 45, N^7-(3-ethynyl-phenyl)-N^2-[4-(morpholine-4-sulfonyl)-phenyl]-thiazolo[4,5-d]pyrimidine-2,7-diamine] | 22.5 nM
O=S(=O)(c1ccc(Nc2nc3ncnc(Nc4ccc(F)c(Cl)c4)c3s2)cc1)N1CCOCC1 [Cpd 46, N^7-(3-chloro-4-fluoro-phenyl)-N^2-[4-(morpholine-4-sulfonyl)-phenyl]-thiazolo[4,5-d]pyrimidine-2,7-diamine] | 15.5 nM
C#Cc1cccc(Nc2ncnc3nc(Nc4ccc(CN5CCN(C)CC5)cc4)sc23)c1 [Cpd 47, N^7-(3-ethynyl-phenyl)-N^2-[4-(4-methyl-piperazin-1-ylmethyl)-phenyl]-thiazolo[4,5-d]pyrimidine-2,7-diamine] | 18.2 nM
C#Cc1cccc(Nc2ncnc3nc(Nc4ccc(Cn5ccnc5CC)cc4)sc23)c1 [Cpd 48, N^2-[4-(2-ethyl-imidazol-1-ylmethyl)-phenyl]-N^7-(3-ethynyl-phenyl)-thiazolo[4,5-d]pyrimidine-2,7-diamine] | 9 nM
C#Cc1cccc(Nc2ncnc3nc(Nc4ccc(CN(C)C)cc4)sc23)c1 [Cpd 49, N^2-(4-dimethylaminomethyl-phenyl)-N^7-(3-ethynyl-phenyl)-thiazolo[4,5-d]pyriridine-2,7-diamine] | 11.8 nM
C#Cc1cccc(Nc2ncnc3nc(Nc4ccc(CCN5CCOCC5)cc4)sc23)c1 [Cpd 50, N^7-(3-ethynyl-phenyl)-N^2-[4-(2-morpholin-4-yl-ethyl)-phenyl]-thiazolo[4,5-d]pyrimidine-2,7-diamine] | 13 nM
Fc1ccc(Nc2ncnc3nc(NCCN4CCOCC4)sc23)cc1Cl [Cpd 51, N^7-(3-chloro-4-fluoro-phenyl)-N^2-(2-morpholin-4-yl-ethyl)-thiazolo[4,5-d]pyrimidine-2,7-diamine] | 918 nM
Fc1ccc(Nc2ncnc3nc(NCCCN4CCOCC4)sc23)cc1Cl [Cpd 52, N^7-(3-chloro-4-fluoro-phenyl)-N^2-(3-morpholin-4-yl-propyl)-thiazolo[4,5-d]pyrimidine-2,7-diamine] | 698 nM
CC(C)OCCNCc1ccc(Nc2nc3ncnc(Nc4ccc(F)c(Cl)c4)c3s2)cc1 [Cpd 53, N^7-(3-chloro-4-fluoro-phenyl)-N^2-{-4-[(2-isopropoxy-ethylamino)-methyl]-phenyl}-thiazolo[4,5-d]pyrimidine-2,7-diamine] | 7.73 nM

Compound | IC50
C#Cc1cccc(Nc2ncnc3nc(Nc4ccc(CN5CCC[C@@H]5CO)cc4)sc23)c1 [Cpd 54, (2R)-(1-{4-[7-(3-ethynyl-phenylamino)-thiazolo[4,5-d]pyrimidin-2-ylamino]-benzyl}-pyrrolidin-2-yl)-methanol] | 10 nM
C#Cc1cccc(Nc2ncnc3nc(Nc4ccc(CNCCOC(C)C)cc4)sc23)c1 [Cpd 55, N^7-(3-ethynyl-phenyl)-N^2-{4-[(2-isopropoxy-ethylamino)-methyl]-phenyl}-thiazolo[4,5-d]pyrimidine-2,7-diamine] | 8.25 nM
COc1ccc(Cl)cc1Nc1ncnc2nc(Nc3ccc(CN4CCOCC4)cc3)sc12 [Cpd 56, N^7-(5-chloro-2-methoxy-phenyl)-N^2-(4-morpholin-4-ylmethyl-phenyl)-thiazolo[4,5-d]pyrimidine-2,7-diamine] | 36 nM
Clc1cccc(Nc2ncnc3nc(Nc4ccc(CN5CCOCC5)cc4)sc23)c1 [Cpd 57, N^7-(3-chloro-phenyl)-N^2-(4-morpholin-4-ylmethyl-phenyl)-thiazolo[4,5-d]pyrimidine-2,7-diamine] | 7 nM
C#Cc1cccc(Nc2ncnc3nc(Nc4ccc(S(=O)(=O)NCCO)cc4)sc23)c1 [Cpd 58, 4-[7-(3-ethynyl-phenylamino)-thiazolo[4,5-d]pyrimidin-2-ylamino]-N-(2-hydroxy-ethyl)-benzenesulfonamide] | 6.5 nM
CN(Cc1ccc(Nc2nc3ncnc(Nc4ccc(F)c(Cl)c4)c3s2)cc1)C[C@H]1CCCO1 [Cpd 59, N^7-(3-chloro-4-fluoro-phenyl)-N^2-(4-{[methyl-(2R)-(tetrahydro-furan-2-ylmethyl)-amino]-methyl}-phenyl)-thiazolo[4,5-d]pyrimidine-2,7-diamine] | 11 nM
CN(Cc1ccc(Nc2nc3ncnc(Nc4ccc(F)c(Cl)c4)c3s2)cc1)C[C@@H]1CCCO1 [Cpd 60, N^7-(3-chloro-4-fluoro-phenyl)-N^2-(4-{[methyl-(2S)-(tetrahydro-furan-2-ylmethyl)-amino]-methyl}-phenyl)-thiazolo[4,5-d]pyrimidine-2,7-diamine] | 23.9 nM
C#Cc1cccc(Nc2ncnc3nc(Nc4ccc(CN(CC(C)O)CC(C)O)cc4)sc23)c1 (stereo not shown) [Cpd 61, 1-[{4-[7-(3-ethynyl-phenylamino)-thiazolo[4,5-d]pyrimidin-2-ylamino]-benzyl}-(2-hydroxy-propyl)-amino]-propan-2-ol] | 27.5 nM
C#Cc1cccc(Nc2ncnc3nc(Nc4ccc(CNCC5COC(C)(C)O5)cc4)sc23)c1 (stereo not shown) [Cpd 62, N^2-(4-{[(2,2-dimethyl-[1,3]dioxolan-4-ylmethyl)-amino]-methyl}-phenyl)-N^7-(3-ethynyl-phenyl)-thiazolo[4,5-d]pyrimidine-2,7-diamine] | 6.95 nM
C#Cc1cccc(Nc2ncnc3nc(Nc4ccc(CN(C)C5CCOCC5)cc4)sc23)c1 [Cpd 63] | 10.7 nM
O=[N+]([O-])c1cc(Nc2ncnc3nc(Nc4ccc(CN5CCOCC5)cc4)sc23)ccc1F [Cpd 65, N^7-(4-fluoro-3-nitro-phenyl)-N^2-(4-morpholin-4-ylmethyl-phenyl)-thiazolo[4,5-d]pyrimidine-2,7-diamine] | 43.4 nM
Fc1ccc(Nc2ncnc3nc(Nc4ccc(CNC[C@H]5CCCO5)cc4)sc23)cc1Cl [Cpd 67, N^7-(3-chloro-4-fluoro-phenyl)-N^2-(4-{[(2R)-(tetrahydro-furan-2-ylmethyl)-amino]-methyl}-phenyl)-thiazolo[4,5-d]pyrimidine-2,7-diamine] | 3.7 nM
C#Cc1cccc(Nc2ncnc3nc(Nc4ccc(OC)nc4)sc23)c1 [Cpd 69, N^7-(3-ethynyl-phenyl)-N^2-(6-methoxy-pyridin-3-yl)-thiazolo[4,5-d]pyrinidine-2,7-diamine] | 28.6 nM
COc1ccc(Nc2nc3ncnc(Nc4ccc(F)c(Cl)c4)c3s2)cn1 [Cpd 70, N^7-(3-chloro-4-fluoro-phenyl)-N^2-(6-methoxy-pyridin-3-yl)-thiazolo[4,5-d]pyrimidine-2,7-diamnine] | 19.6 nM
Nc1ccc(Nc2nc3ncnc(Nc4ccc(F)c(Cl)c4)c3s2)cn1 [Cpd 71, N^2-(6-amino-pyridin-3-yl)-N^7-(3-chloro-4-fluoro-phenyl)-thiazolo[4,5-d]pyrimidine-2,7-diamine] | 44 nM
